Assay results published in patent US20240074473A1, “METHOD FOR INDUCING HYPERTROPHIC MUSCLE FIBERS FOR INDUSTRIAL MEAT PRODUCTION” (Yeda Research and Development Co. Ltd., priority 2021, published 2024).

What was measured:
Format in all cases: cell-based
[1] = test system: primary chicken myoblasts; experiment: Fusion index of primary chicken myoblasts (MyHC immunostaining); conditions: for Fusion: 48 hours post treatment
Procedure: Chicken primary derived myoblasts were used as a model to evaluate the efficiency of SCH772984 as the ERKi, compared to conventional differentiation medium (DM) for the purpose of producing muscle (meat) in tissue culture conditions. Chicken myoblasts were isolated from chicken embryos and expanded in proliferation medium. When sufficient cell numbers were acquired, cells were seeded on tissue culture plates and allowed to adhere for 24 hours. Then medium was changed to either PM supplemented with ERKi or DM. At 24-hours post treatment, the cells that received ERKi were replenished with fresh PM (without the addition of more ERKi), and DM treated cells were replenished with fresh DM. Media was replaced daily over a period of 72 hours.
Evaluation of muscle fiber formation was achieved by fixing the cells and staining for expression of Myosin Heavy Chain (FIG. 9A). […] Yet, treatment with conventional DM only began to form fibers beginning at 72-hours post treatment. A fusion index was quantified at 72 hours post treatment (FIG. 9B), in which the percentage of total nuclei present in a myotube (MyHC positive cell with 2 or more nuclei).
Primary chicken myoblast isolation and treatment: chicken myoblasts were isolated from broiler chicken embryos at day 18 from breast and leg muscles by using Trypsin B. Following tissue dissociation, the cell suspension was grown for 3-4 days on 10% Matrigel coated plates. At the first passage, the cells were lifted and pre-plated twice for 30 minutes to enrich for myoblasts and reduce the number of fibroblasts. Then cells were seeded at 8,000/well of optical-96 well plates in proliferation medium. 24 hours after plating, media was aspirated and replaced with the indicated treatment conditions in proliferation media or differentiation media (as indicated). After 24 hours with treatment, the media was aspirated and all wells were replenished with fresh proliferation media or differentiation media without any treatment. This was repeated daily. Cells were fixed at 48 hours after treatment. Compounds were purchased from Cayman Chemicals.
Immunofluorescent staining: Cells were fixed with ice cold 4% PFA in PBS for 10 minutes, permeabilized with 0.5% Triton X-100 in PBS for 6 minutes, and blocked in PBS with 0.025% tween, 10% normal horse serum and 10% normal goat serum for 1 hour at room temperature. Primary antibody incubation was done in blocking buffer overnight at 4 degrees, with the following antibodies: Myosin Heavy Chain (MyHC, MF20, DSHB hybridoma supernatant 1:10, alpha-actinin (SIGMA A7811). Cells were washed 3 times in PBS with 0.025% tween and then incubated with appropriate secondary antibodies in PBS 1 hour. Nuclei were labeled with DAPI (SIGMA D9542, 5 ug/ml). All fusion indexes and imaging analysis were performed on at least 1000 per technical repeat.

[2] = test system: primary mouse myoblasts; experiment: MYOG positive nuclei in primary mouse myoblasts (immunofluorescence); conditions: 24 hours, ERKi in growth medium
Procedure: (§1) Isolation of and treatment of primary myoblasts. Primary mouse myoblasts were isolated from gastrocnemius muscle using trypsin-tissue dissociation. Briefly, muscle tissues were incubated in Trypsin B (0.25%, Biological Industries) and subjected to mechanical dissociation with a serological pipet. Supernatants were strained and centrifuged. Pellets were grown resuspended in BioAmf-2 media (Biological Industries, Israel) and plated on 10% Matrigel (BD Biosciences)-coated plates at 37° and 5% CO2. For all in vitro experiments, proliferation medium was Bio-Amf2 (Biological Industries, Israel) and Differentiation medium (DM) was DMEM 2% Horse Serum (HS) with 1% Pen/Strep. For fusion assays, cells were trypsinized with Trypsin C (0.05%, Biological Industries) and subjected to two rounds of preplating on uncoated plates to reduce the number of fibroblasts. Cells were plated at a density of 8×10^3 per well in 10% Matrigel-coated 96-well plates in proliferation medium for 24 hours. The following day, proliferation media was replaced either with proliferation media or with DM containing DMSO (Ctrl) or 1 μM ERK1/2 inhibitor (ERKi; SCH772984, Cayman Chemicals), […] RXR antagonist (RXRi; HX-531, Cayman Chemicals), […] Ryanodine receptor antagonist (RYRi; Dantrolene, Cayman Chemicals), 5 μM CaMKII inhibitor (CaMKIIi; KN93, Cayman Chemicals), or with DM for controls.
(§2) Immunofluorescence staining. First passage primary myoblasts isolated from various strains (indicated in figure legends) were plated in 96-well plates or chamber slides and treated as previously described. The cells were fixed with ice cold 4% PFA in PBS for 10 minutes, permeabilized with 0.5% Triton X-100 in PBS for 6 minutes, and blocked in PBS with 0.025% tween, 10% normal horse serum and 10% normal goat serum for 1 hour at room temperature. Primary antibody incubation was done in blocking buffer overnight at 4 degrees, with the following antibodies: Myosin Heavy Chain (MyHC, MF20, DSHB hybridoma supernatant 1:10, or MY-32 ABCAM ab51263 1:400), Myogenin (MYOG sc-13137 SCBT 1:200), pHistone 3 (PH3, ab47297 ABCAM 1:1000), Ki-67 (Cell Marque #275R), RYR (ab2868 ABCAM 1:100), and pCaMKII (SIGMA SAB4504356 1:100). Cells were washed 3 times in PBS with 0.025% tween and then incubated with appropriate secondary antibodies in PBS 1 hour. Where indicated, nuclei were either labeled with DAPI (SIGMA D9542, 5 ug/ml) or Hoechst 33342 (Thermo scientific #62249, 1:2000). Fixed cells at 24 hours post treatment with indicated inhibitors were imaged using the Nikon Eclipse Ti2 microscope (further described in microscopy section). All analysis was performed on at least 1000 nuclei. For fixed cells following the timecourse with ERKi or DM (FIG. 1B), images were captured with an inverted Olympus IX83 microscope (further details in microscopy section). All imaging analysis were performed on at least 1000 cells.

[3] = test system: primary mouse myoblasts; experiment: Fusion index of primary mouse myoblasts (MyHC immunostaining); conditions: first passage mouse primary myoblasts, 24 hours; 1 μM ERKi in growth medium vs. DM
Procedure: as §1
as §2, with “For fixed cells following the timecourse with ERKi or DM (FIG. 1B), images were captured with an inverted Olympus IX83 microscope (further details in microscopy section). All imaging analysis were performed on at least 1000 cells.” left out
Quantification of fusion index. Following immunostaining and imaging, a fusion index was quantified by manually identifying nuclei found in a MyHC positive cell with at least 2 nuclei. Then the values were expressed as a percentage of the total nuclei per field. Briefly, in Figures where fusion index is stratified into subgroups of fiber size, the nuclei number in MyHC positive cell was manually quantified in a given field and stratified into groups of mononucleated, bi-nucleated myotubes, myotubes with 3-10 nuclei and myotubes with greater than 10 nuclei. […] Fields were analyzed hourly, and nuclei per cell was quantified and stratified into mononucleated, bi-nucleated, tri-nucleated and cells with ≥4 nuclei.

O=C(Nc1ccc2[nH]nc(-c3ccncc3)c2c1)[C@@H]1CCN(CC(=O)N2CCN(c3ccc(-c4ncccn4)cc3)CC2)C1 [SCH772984]
Muscle fibers begin to form earlier than with DM ([1]; chicken myoblasts): 48 h | Increase in fusion index compared to DM ([1]; chicken myoblasts, 72 hours post treatment): ~4 fold | Fusion index (percentage of total nuclei in MyHC positive cell with 2 or more nuclei) ([1]; chicken myoblasts, 72 hours post treatment, ERKi in PM vs DM): 62% | Time at which myotubes/fibers begin to form ([1]; chicken myoblasts, post treatment): ≤ 24 h | Fusion ([1]; primary chicken myoblasts, Differentiation media, 1 uM): 46% | Fusion ([1]; primary chicken myoblasts, Differentiation media, 10 uM): 61% | Fusion ([1]; primary chicken myoblasts, Proliferation media, 1 uM): 59% | Fusion ([1]; primary chicken myoblasts, Proliferation media, 10 uM): 69% | Fusion index ([1]; primary chicken myoblasts, proliferation medium, ERKi treatment alone (SCH772984 1 uM), 48 hours): 62% | Fraction of MYOG positive nuclei compared to DM [2]: significantly higher | Fusion index (fraction of nuclei in differentiated MyHC+ cells) [3]: 90.5%
